From PMC9260667, “Thioredoxin Reductase Inhibitors as Potential Antitumors: Mercury Compounds Efficacy in Glioma Cells” (Frontiers in Molecular Biosciences, 2022)
Where two headings read alike, the source gives them in different places.

Key:
GL261 cells [1] = assay: cells; type: cell-based, mouse
Experimental: Cells were seeded in 96-well plates for 24 h prior to the addition of TmHg, EtHg (1 µM), TMZ (200, 400, and 800 µM), and for the 48 h end point the co-exposure of TMZ 200 µM with 1 µM EtHg and 1 µM TmHg. After exposure for 24 and 48 h, the supernatant was transferred to a fresh plate and a lysis buffer (10×) (Thermo Scientific™ Pierce™) was added to wells containing cells and incubated at 37°C for 45 min. LDH activity was evaluated using LDH Cytotoxicity Assay Kit from Thermo Scientific™ Pierce™ in the supernatant and lysate by the addition of lactate (substrate), a tetrazolium salt, and NAD^+ (cofactor) (Reaction Mixture), according to the manufacturer’s instructions. Following 30 min of incubation in the dark at room temperature, LDH release was assessed by measuring the absorbance at 490 and 680 nm in a microplate reader (Omega BMG LABTECH). The release of LDH was quantified as the ratio between the amount in the supernatant and total LDH (supernatant + lysate) ([Branco et al., 2017]).

GL261 cells [2] = assay: cells; type: cell-based, mouse; conditions: for IC50: Mus musculus, read-out: IC50 (MTT assay)
Experimental: The effect of TmHg and EtHg on the viability of GL261 and N9 cells was evaluated by the MTT assay as previously described ([Branco et al., 2014]). Briefly, cells (5 × 10^3) were seeded in 96-well plates (Nunc®) and incubated at 37°C for 24 h to allow proper adherence to plates. Afterwards, TmHg and EtHg (0, 0.5, 1, 2.5, and 5 μM) were added to wells. The same procedure was carried out to evaluate the effect of TMZ on the cellular viability of GL261 and DMSO at a final concentration of 0.1% was added as a control group. For co-exposure, the addition of the mercury compounds (EtHg—1 and 2 μM; TmHg—1 and 2 µM) under study followed the addition of TMZ (200 µM).
Cell viability was determined at the time of addition of the compounds (0 h) and after 24, 48, and 72 h of exposure by adding MTT to a final concentration of 400 μg/ml per well and incubating at 37°C for 4 h. After incubation, the medium was removed, and the formazan crystals were dissolved in a 4:1 DMSO/glycine buffer (pH 10.5). After shaking for 15 min, the viability was evaluated through the measurement of formazan absorption at 550 nm on a microplate reader (Zenyth 3100, Anthos Labtec Instruments) ([Branco et al., 2014]).
The IC50 is the concentration of a compound that decreases MTT reduction by 50% relative to the non-treated control at each time point.

[3] = design: method as in JECFA 2004, WHO Technical Report Series 922; conditions: ref JECFA 2004, WHO Technical Report Series 922; cited from earlier work

Cn1nnc2c(C(N)=O)ncn2c1=O [TMZ, temozolomide]
change of LDH levels (GL261 cells [1]; GL261, 200 µM TMZ alone): did not change the levels of LDH | EC50 (GL261 cells [1]; Mus musculus, GL261, 48 h exposure, read-out: EC50 (LDH assay)): > 800 µM | reduction of viability (MTT) (GL261 cells [2]; GL261, 24 h exposure, maximal effect): ≤ 40% | IC50 (GL261 cells [2]; GL261, 48 h exposure): 444 ± 60 µM | IC50 (GL261 cells [2]; GL261, 72 h exposure): 276 ± 7 µM

[CH3][Hg][Cl] [methylmercury]
safe concentration of intake without appearance of neurological disorders [3]: 1.6 µg/Kg b.w./week
